Data set [1] is described as follows: Volume of distribution at steady state in Balb/C mouse at 10 mg/kg,po measured upto 48 hrs by LC-MS/MS analysis. In kind it is ADME, organism-based. To be noted: in vivo.
Data set [2] in a line: Efflux ratio of apparent permeability in human Caco-2 cells. In kind it is ADME, cell-based.
For a further data set, the system named is HCT-116. In words: Induction of apoptosis in human HCT-116 cells assessed as early apoptotic cells at 1 uM measured after 2 days in presence of irinotecan by AnnexinV-FITC/PI staining based analysis (reference value: 14.4%). It is filed as functional. To be noted: time 2 day.

For orientation: efflux ratio means a quotient of directional permeabilities that is used to spot active efflux.

For `CC(C)NC(=O)N(C)c1cnc2ccc(-c3ccc(OCCCN4CCCCC4)nc3)cc2n1`, the Vdss in data set [1] turned out to be 3.52 L/kg. Moreover, in data set [2], the efflux ratio came out at 2.37. The Activity in the data set on HCT-116 came to 49.9%.

The values are drawn from ChEMBL document CHEMBL5346961, “Discovery and Evaluation of 3-Quinoxalin Urea Derivatives as Potent, Selective, and Orally Available ATM Inhibitors Combined with Chemotherapy for the Treatment of Cancer via Goal-Oriented Molecule Generation and Virtual Screening” (J Med Chem, 2023).
